# Key:
# Format in all cases: cell-based
# Candida albicans GA-24 = experiment: Antifungal Activity MIC (in medicinal field); conditions: GA24, read-out: Minimal Inhibitory Concentration (MIC)
# [1] = test system: Aspergillus fumigatus Saito; experiment: Antifungal Activity MIC (in medicinal field); conditions: read-out: Minimal Inhibitory Concentration (MIC)
# [2] = test system: Trichophyton metagrophytes 530324; experiment: Antifungal Activity MIC (in medicinal field); conditions: read-out: Minimal Inhibitory Concentration (MIC)
# [3] = test system: Cryptococcus neoformans Cr-1; experiment: Antifungal Activity MIC (in medicinal field); conditions: CR1, read-out: Minimal Inhibitory Concentration (MIC)
# [4] = test system: Trichophyton interdigitale; experiment: Antifungal Activity MIC (in medicinal field); conditions: read-out: Minimal Inhibitory Concentration (MIC)
# [5] = test system: Escherichia coli NIHJ JC-2; experiment: Minimal Inhibitory Concentration Method; conditions: NIHJJC2, read-out: Minimal Inhibitory Conc.
# Salmonella typhi 0-901-W = experiment: Minimal Inhibitory Concentration Method; conditions: Salmonella enterica, read-out: Minimal Inhibitory Conc.
# [6] = test system: Bacillus anthracis No. 119; experiment: microbe, parasite or virus in culture; conditions: NO.119, read-out: Minimal Inhibitory Conc.
# [7] = test system: Klebsiella pneumoniae PCI 602; experiment: Minimal Inhibitory Concentration Method; conditions: PCI602, read-out: Minimal Inhibitory Conc.
# Proteus vulgaris OX-19 = experiment: Minimal Inhibitory Concentration Method; conditions: Proteus vulgaris, OX19, read-out: Minimal Inhibitory Conc.
# [8] = test system: Shigella sonnei EW 33 type I; experiment: Minimal Inhibitory Concentration Method; conditions: EW33TYPEI, read-out: Minimal Inhibitory Conc.
# Description: (Minimal Inhibitory Concentration Method)
# Minimal Inhibitory Conc. (mcg/ml)
# [9] = test system: Staphylococcus aureus 209P JC-1; experiment: Minimal Inhibitory Concentration Method; conditions: Staphylococcus aureus, 209P, read-out: Minimal Inhibitory Conc.
# [10] = test system: Pseudomonas maltiophilia M-0627; experiment: Minimal Inhibitory Concentration Method; conditions: M0627, read-out: Minimal Inhibitory Conc.
# [11] = test system: Serratia marcescens MB-3848; experiment: Minimal Inhibitory Concentration Method; conditions: MB3848; Serratia marcescens MB-3848; read-out: Minimal Inhibitory Conc.
# [12] = test system: Pseudomonas cepacia M-0527; experiment: Minimal Inhibitory Concentration Method; conditions: Burkholderia cepacia, M0527, read-out: Minimal Inhibitory Conc.
# [13] = test system: Escherichia coli NIHJ JC-2; experiment: Antibacterial activity (Paper-disc method); conditions: read-out: Inhibition zone diameter; for zone of inhibition at 250 µg/mL: NIHJJC2, 250 γ/ml; for zone of inhibition at 500 µg/mL: NIHJJC2, 500 γ/ml
# Bacillus subtilis = experiment: Antibacterial activity (Paper-disc method); conditions: read-out: Inhibition zone diameter; for zone of inhibition at 250 µg/mL: 250 γ/ml; for zone of inhibition at 500 µg/mL: 500 γ/ml
# Sarcina lutea = experiment: Antibacterial activity (Paper-disc method); conditions: Micrococcus luteus, read-out: Inhibition zone diameter; for zone of inhibition at 250 µg/mL: 250 γ/ml; for zone of inhibition at 500 µg/mL: 500 γ/ml
# [14] = test system: Staphylococcus aureus 209P; experiment: Antibacterial activity (Paper-disc method); conditions: read-out: Inhibition zone diameter; for zone of inhibition at 250 µg/mL: 250 γ/ml; for zone of inhibition at 500 µg/mL: 500 γ/ml
Compound,MIC (Candida albicans GA-24) [µg/mL],MIC [1] [µg/mL],MIC [2] [µg/mL],MIC [3] [µg/mL],MIC [4] [µg/mL],further results
"Cc1nnn(CC#CI)n1 [Compound No. 1, 2-(1'-iodopropyn-3'-yl)-5-methyltetrazole]",6.25,6.25,3.12,3.12,6.25,
"Cc1nnnn1CC#CI [Compound No. 2, 1-(1'-Iodopropyn-3'-yl)-5-methyltetrazole]",1.56,0.75,0.78,0.78,0.78,
"CCCc1nnn(CC#CI)n1 [Compound No. 5, 2-(1'-iodopropyn-3'-yl)-5-n-propyltetrazole]",0.78,≤ 0.05,0.05,0.78,≤ 0.05,MIC [5]: 50 µg/mL; MIC (Salmonella typhi 0-901-W): 25 µg/mL; MIC [6]: 12.5 µg/mL; MIC [7]: 100 µg/mL; MIC (Proteus vulgaris OX-19): 12.5 µg/mL; MIC [8]: 6.25 µg/mL; MIC [9]: 12.5 µg/mL; MIC [10]: 25 µg/mL; MIC [11]: 25 µg/mL; MIC [12]: 100 µg/mL
"CC(C)c1nnn(CC#CI)n1 [Compound No. 7, 2-(1'-iodopropyn-3'-yl)-5-isopropyltetrazole]",≤ 0.05,≤ 0.05,≤ 0.05,0.78,≤ 0.05,MIC [5]: 25 µg/mL; MIC (Salmonella typhi 0-901-W): 25 µg/mL; MIC [6]: 12.5 µg/mL; MIC [7]: 100 µg/mL; MIC (Proteus vulgaris OX-19): 12.5 µg/mL; MIC [8]: 6.25 µg/mL; MIC [9]: 12.5 µg/mL; MIC [10]: 50 µg/mL; MIC [11]: 25 µg/mL; MIC [12]: > 100 µg/mL
"CCCCCc1nnn(CC#CI)n1 [Compound No. 17, 2-(1'-iodopropyn-3'-yl)-5-pentyltetrazole]",3.13,0.39,≤ 0.05,3.13,0.09,
"COc1ccc(-c2nnn(CC#CI)n2)cc1 [Compound No. 24, 2-(1'-Iodopropyn-3'-yl)-5-(p-methoxyphenyl)tetrazole]",12.5,1.56,≤ 0.05,50,0.09,
"Clc1ccc(-c2nnn(CC#CI)n2)cc1 [Compound No. 25, 2-(1'-iodopropyn-3'-yl)-5-(p-chlorophenyl)tetrazole]",1.56,0.39,0.09,,0.39,zone of inhibition at 250 µg/mL [13]: 13 mm; zone of inhibition at 500 µg/mL [13]: 13 mm; zone of inhibition at 250 µg/mL (Bacillus subtilis): 11.2 mm; zone of inhibition at 500 µg/mL (Bacillus subtilis): 11.1 mm; zone of inhibition at 250 µg/mL (Sarcina lutea): 16 mm; zone of inhibition at 500 µg/mL (Sarcina lutea): 15 mm; zone of inhibition at 250 µg/mL [14]: 13.2 mm; zone of inhibition at 500 µg/mL [14]: 13.7 mm
"Clc1ccc(-c2nnnn2CC#CI)cc1 [Compound No. 26, 1-(1'-Iodopropyn-3'-yl)-5-(p-chlorophenyl)tetrazole]",0.78,0.78,< 0.04,0.78,0.19,
"Clc1cc(Cl)cc(-c2nnn(CC#CI)n2)c1 [Compound No. 30, 2-(1'-Iodopropyn-3'-yl)-5-(3"",5""-dichlorophenyl)tetrazole]",0.78,0.19,0.09,0.78,≤ 0.05,
"Cc1ccc(-c2nnn(CC#CI)n2)cc1 [Compound No. 31, 2-(1'-Iodopropyn-3'-yl)-5-(p-methylphenyl)tetrazole]",0.78,1.56,0.19,1.56,0.39,zone of inhibition at 250 µg/mL [13]: 11.4 mm; zone of inhibition at 500 µg/mL [13]: 11.6 mm; zone of inhibition at 250 µg/mL (Bacillus subtilis): 9.6 mm; zone of inhibition at 500 µg/mL (Bacillus subtilis): 9.6 mm; zone of inhibition at 250 µg/mL (Sarcina lutea): 12 mm; zone of inhibition at 500 µg/mL (Sarcina lutea): 12 mm; zone of inhibition at 250 µg/mL [14]: 11.3 mm; zone of inhibition at 500 µg/mL [14]: 11.4 mm
"Oc1ccc(-c2nnnn2CC#CI)cc1 [Compound No. 35, 1-(1'-iodopropyn-3'-yl)-5-(p-hydroxyphenyl)tetrazole]",1.56,100,0.1,0.39,0.1,

# — patent publication US4647572A, “Iodoallyl and iodopropargyl substituted tetrazoles and anti-microbial compositions thereof” (Meiji Seika Kaisha, Ltd., priority 1982, dated 1987)
